Assay results reported in PMC3905170, “Synthesis and structure evaluation of new complex butylarylpiperazin-1-yl derivatives” (Medicinal Chemistry Research, 2013).
Where two headings read alike, the source gives them in different places.

Assays:
MT-4 cells = experiment: Cytotoxicity assay in MT-4 cells (MTT method); type: cell-based, human
Method: (§1) Cell line and viruses were purchased from the American Type Culture Collection (ATCC). The absence of mycoplasma contamination was checked periodically by the Hoechst staining method. Cell line supporting the multiplication of human immunodeficiency virus type-1 (HIV-1) was the CD4+ human T-cells containing an integrated HTLV-1 genome (MT-4). Cytotoxicity assays were run in parallel with antiviral assays. Exponentially growing MT-4 cells were seeded at an initial density of 1 × 10^5 cells/ml in 96-well plates in RPMI-1640 medium, supplemented with 10 % fetal bovine serum (FBS), 100 units/ml penicillin G, and 100 μg/ml streptomycin. Cell cultures were then incubated at 37 °C in a humidified 5 % CO2 atmosphere in the absence or presence of serial dilutions of test compounds. Cell viability was determined after 96 h at 37 °C by the 3-(4,5-dimethylthiazol-2-yl)-2,5-diphenyl-tetrazolium bromide (MTT) method (Pauwels et al., [1988]).

HIV-1IIIB = experiment: Anti-HIV-1 assay: inhibition of virus-induced cytopathogenicity in MT-4 cells (MTT method); type: cell-based, human immunodeficiency virus type-1; settings: MT-4 cells infected with HIV-1IIIB, m.o.i. 0.01, 4-day incubation, read-out: EC50: compound concentration required to achieve 50 % protection of MT-4 cells from the HIV-1-induced cytopathogenicity
Excerpt: Cell line and viruses were purchased from the American Type Culture Collection (ATCC). The absence of mycoplasma contamination was checked periodically by the Hoechst staining method. Cell line supporting the multiplication of human immunodeficiency virus type-1 (HIV-1) was the CD4+ human T-cells containing an integrated HTLV-1 genome (MT-4).
Compound’s activity against HIV-1 was based on inhibition of virus-induced cytopathogenicity in MT-4 cell acutely infected with a multiplicity of infection (m.o.i.) of 0.01. In brief, 50 μl of RPMI containing 1 × 10^4 MT-4 cells were added to each well of flat-bottom microtitre trays, containing 50 μl of RPMI with or without serial dilutions of test compounds. Then, 20 μl of a HIV-1 suspension containing 100 CCID50 was added. After a 4-day incubation at 37 °C, cell viability was determined by the MTT method (Pauwels et al., [1988]).

5-HT1A receptor = target: T1, 5-HT1A receptor (Rattus norvegicus, UniProt P19327); experiment: In vitro ligand binding assay with native 5-HT1A receptor
T1 construct: Ligand studies with native 5-HT1A receptor; from tissue
T1 sequence (P19327 1-422): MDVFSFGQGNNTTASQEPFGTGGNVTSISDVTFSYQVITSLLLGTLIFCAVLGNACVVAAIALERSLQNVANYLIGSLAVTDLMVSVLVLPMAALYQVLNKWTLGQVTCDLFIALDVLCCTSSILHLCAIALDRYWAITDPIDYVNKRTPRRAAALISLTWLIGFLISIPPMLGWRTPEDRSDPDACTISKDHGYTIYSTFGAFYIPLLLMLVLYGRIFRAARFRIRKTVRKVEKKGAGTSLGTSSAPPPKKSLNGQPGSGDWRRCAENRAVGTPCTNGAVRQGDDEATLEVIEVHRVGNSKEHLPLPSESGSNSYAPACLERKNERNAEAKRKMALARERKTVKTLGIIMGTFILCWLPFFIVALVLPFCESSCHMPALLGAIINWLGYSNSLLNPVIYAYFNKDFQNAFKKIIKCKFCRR
Method: Ligand studies with native 5-HT1A receptor were conducted according to the methods previously described (Lewgowd et al., [2011]).

[1] = Cytotoxicity assay in MT-4 cells (MTT method); type: cell-based, human; settings: human; mock-infected MT-4 cells, 96 h, MTT method; read-out: CC50: compound concentration required to reduce the viability of mock-infected MT-4 cells by 50 %
Method: as §1

[2] = Human immunodeficiency virus 1, MT4, 96 h

Row | Compound | CC50 (MT-4 cells) [µM] | EC50 (HIV-1IIIB) [µM] | activity to the 5-HT1A receptor (5-HT1A receptor) | melting point [°C] | CC50 at 96 h [1] [µM] | EC50 (HIV-1IIIB; [2]) [µM]
1 | O=c1c2ccccc2c2c(-c3ccccc3)c3c(=O)n(CCCCN4CCN(c5ccc(Cl)cc5)CC4)c(=O)c3c(-c3ccccc3)c12 [Compound 17, 2-{4-[4-(4-Chlorophenyl)piperazin-1-yl]butyl}-4,10-diphenyl-1H,2H,3H,5H-indeno[1,2-f]isoindole-1,3,5-trione] | > 100 | > 100 |  |  |  | 
2 | COc1ccccc1N1CCN(CCCCN2C(=O)C3C(C2=O)C2(c4ccccc4)C(=O)C3(c3ccccc3)c3c2c2ccccc2c2ccccc32)CC1 (stereo not drawn) [Compound 4, 19-(4-(4-(2-(Methyloxy)phenyl)piperazin-1-yl)butyl)-1,16-diphenyl-19-azahexa-cyclo[14.5.1.0^2,15.0^3,8.0^9,14.0^17,21]docosa-2,3,5,7,8,9,11,13,14-nonaene-18,20,22-trione] |  |  | moderate activity | 197 to 200 |  | 
3 | 2-{4-[4-(2-Fluorophenyl)piperazin-1-yl]butyl}-4,10-diphenyl-1H,2H,3H,5H-indeno[1,2-f]isoindole-1,3,5-trione [Compound 15] | > 100 | > 100 |  |  |  | 
4 | COc1ccccc1N1CCN(CCCCn2c(=O)c3c(-c4ccccc4)c4c(=O)c5ccccc5c4c(-c4ccccc4)c3c2=O)CC1 [Compound 19, 2-{4-[4-(2-metoxyphenyl)piperazin-1-yl]butyl}-4,10-diphenyl-1H,2H,3H,5H-indeno[1,2-f]isoindole-1,3,5-trione] |  |  |  | 245 to 246 | > 100 | > 100
5 | 2-{4-[4-(4-Fluorophenyl)piperazin-1-yl]butyl}-4,10-diphenyl-1H,2H,3H,5H-indeno[1,2-f]isoindole-1,3,5-trione [Compound 16] | > 100 | > 100 |  |  |  | 
6 | 4,10-Diphenyl-2-{4-[4-(pyridin-2-yl)piperazin-1-yl]butyl}-1H,2H,3H,5H-indeno[1,2-f]isoindole-1,3,5-trione [Compound 13] | > 100 | > 100 |  |  |  | 
7 | O=C1Nc2ccc(Cl)cc2[C@@](C#CC2CC2)(C(F)(F)F)O1 [Efavirenz, reference compound] |  |  |  |  | 45 | 0.002
8 | 4,10-Diphenyl-2-[4-(4-{2-[2-(trifluoromethyl)phenyl]ethyl}piperazin-1-yl)butyl]-1H,2H,3H,5H-indeno[1,2-f]isoindole-1,3,5-trione [Compound 14] | 9 | > 9 |  |  |  | 
9 | O=c1c2ccccc2c2c(-c3ccccc3)c3c(=O)n(CCCCN4CCN(c5ccccc5Cl)CC4)c(=O)c3c(-c3ccccc3)c12 [Compound 18, 2-{4-[4-(2-Chlorophenyl)piperazin-1-yl]butyl}-4,10-diphenyl-1H,2H,3H,5H-indeno[1,2-f]isoindole-1,3,5-trione] | > 100 | > 100 |  |  |  | 
10 | O=c1cccc2cc3c(-c4ccccc4)c4c(=O)n(CCCCBr)c(=O)c4c(-c4ccccc4)c3c1-2 |  |  |  | 241 to 242 |  | 
11 | 4,10-Diphenyl-2-[4-(4-phenylpiperazin-1-yl)butyl]-1H,2H,3H,5H-indeno[1,2-f]isoindole-1,3,5-trione [Compound 12] | > 100 | > 100 |  |  |  | 
12 | O=c1[nH]c(=O)c2c(-c3ccccc3)c3c(c(-c4ccccc4)c12)c(=O)c1ccccc13 [Compound 10, 4,10-diphenyl-1H,2H,3H,5H-indeno[1,2-f]isoindole-1,3,5-trione] | 9 | > 9 |  |  |  | 
13 | O=C1C2C(C(=O)N1CCCCN1CCN(c3ccccc3F)CC1)C1(c3ccccc3)C(=O)C2(c2ccccc2)c2c1c1ccccc1c1ccccc21 (stereo not drawn) [Compound 7, 19-(4-(4-(2-Fluorophenyl)piperazin-1-yl)butyl)-1,16-diphenyl-19-azahexacyclo-[14.5.1.0^2,15.0^3,8.0^9,14.0^17,21]docosa-2,3,5,7,8,9,11,13,14-nonaene-18,20,22-trione] |  |  |  | 205 to 207 | > 100 | > 100
14 | O=C1C2C(C(=O)N1CCCCN1CCN(c3ccccn3)CC1)C1(c3ccccc3)C(=O)C2(c2ccccc2)c2c1c1ccccc1c1ccccc21 (stereo not drawn) [Compound 3, 1,16-Diphenyl-19-(4-(4-pyridin-2-ylpiperazin-1-yl)butyl)-19-azahexacyclo-[14.5.1.0^2,15.0^3,8.0^9,14.0^17,21]docosa-2,3,5,7,8,9,11,13,14-nonaene-18,20,22-trione] |  |  |  | 200 to 203 | 90 | > 90
15 | O=C1C2C(C(=O)N1CCCCN1CCN(c3ccc(Cl)cc3)CC1)C1(c3ccccc3)C(=O)C2(c2ccccc2)c2c1c1ccccc1c1ccccc21 (stereo not drawn) [Compound 6, 19-(4-(4-(4-Chlorophenyl)piperazin-1-yl)butyl)-1,16-diphenyl-19-azahexacyclo-[14.5.1.0^2,15.0^3,8.0^9,14.0^17,21]docosa-2,3,5,7,8,9,11,13,14-nonaene-18,20,22-trione] |  |  |  | 220 to 221 | > 100 | > 100
16 | CC(=O)c1ccc(N2CCN(CCCCN3C(=O)C4C(C3=O)C3(c5ccccc5)C(=O)C4(c4ccccc4)c4c3c3ccccc3c3ccccc43)CC2)cc1 (stereo not drawn) [Compound 8, 19-(4-(4-(4-Acetylphenyl)piperazin-1-yl)butyl)-1,16-diphenyl-19-azahexacyclo-[14.5.1.0^2,15.0^3,8.0^9,14.0^17,21]docosa-2,3,5,7,8,9,11,13,14-nonaene-18,20,22-trione] |  |  |  | 202 to 204 | > 100 | > 100
